According to PubChem BioAssay (NCI):
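These data come from cells grown in 96-well plates and exposed to compound for 48 hours at five concentrations. Here, GI50 denotes the concentration required for 50% inhibition of growth. TGI marks complete inhibition of growth.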

What was measured:
Test in all cases: inhibition of tumour cell growth, NCI panel, 48 h
786-0 renal = tested on: 786-0 renal
A498 renal = tested on: A498 renal
A549 NSCLC = tested on: A549 NSCLC
ACHN renal = tested on: ACHN renal
BT-549 breast = tested on: BT-549 breast
CAKI-1 renal = tested on: CAKI-1 renal
CCRF-CEM leukemia = tested on: CCRF-CEM leukemia
COLO 205 colon = tested on: COLO 205 colon
DU-145 prostate = tested on: DU-145 prostate
EKVX NSCLC = tested on: EKVX NSCLC
HCC-2998 colon = tested on: HCC-2998 colon
HCT-116 colon = tested on: HCT-116 colon
HCT-15 colon = tested on: HCT-15 colon
HL-60(TB) leukemia = tested on: HL-60(TB) leukemia
HOP-62 NSCLC = tested on: HOP-62 NSCLC
HOP-92 NSCLC = tested on: HOP-92 NSCLC
HS 578T breast = tested on: HS 578T breast
HT29 colon = tested on: HT29 colon
IGROV1 ovarian = tested on: IGROV1 ovarian
K-562 leukemia = tested on: K-562 leukemia
KM12 colon = tested on: KM12 colon
LOX IMVI melanoma = tested on: LOX IMVI melanoma
M14 melanoma = tested on: M14 melanoma
MALME-3M melanoma = tested on: MALME-3M melanoma
MCF7 breast = tested on: MCF7 breast
MDA-MB-231 breast = tested on: MDA-MB-231 breast
MDA-MB-435 = tested on: MDA-MB-435
MOLT-4 leukemia = tested on: MOLT-4 leukemia
NCI-H226 lung = tested on: NCI-H226 lung
NCI-H23 lung = tested on: NCI-H23 lung
NCI-H460 lung = tested on: NCI-H460 lung
NCI-H522 lung = tested on: NCI-H522 lung
NCI/ADR-RES ovarian = tested on: NCI/ADR-RES ovarian
OVCAR-3 ovarian = tested on: OVCAR-3 ovarian
OVCAR-4 ovarian = tested on: OVCAR-4 ovarian
OVCAR-5 ovarian = tested on: OVCAR-5 ovarian
OVCAR-8 ovarian = tested on: OVCAR-8 ovarian
PC-3 prostate = tested on: PC-3 prostate
RPMI-8226 leukemia = tested on: RPMI-8226 leukemia
RXF 393 renal = tested on: RXF 393 renal
SF-268 CNS = tested on: SF-268 CNS
SF-295 CNS = tested on: SF-295 CNS
SF-539 CNS = tested on: SF-539 CNS
SK-MEL-2 melanoma = tested on: SK-MEL-2 melanoma
SK-MEL-28 melanoma = tested on: SK-MEL-28 melanoma
SK-MEL-5 melanoma = tested on: SK-MEL-5 melanoma
SK-OV-3 ovarian = tested on: SK-OV-3 ovarian
SN12C renal = tested on: SN12C renal
SNB-19 CNS = tested on: SNB-19 CNS
SNB-75 CNS = tested on: SNB-75 CNS
SR leukemia = tested on: SR leukemia
SW-620 colon = tested on: SW-620 colon
T-47D breast = tested on: T-47D breast
TK-10 renal = tested on: TK-10 renal
U251 CNS = tested on: U251 CNS
UACC-257 melanoma = tested on: UACC-257 melanoma
UACC-62 melanoma = tested on: UACC-62 melanoma
UO-31 renal = tested on: UO-31 renal

CN(Cc1cnc2nc(N)nc(N)c2n1)c1ccc(C(=O)NC(CCC(=O)O)C(=O)O)cc1 (stereo not drawn)
GI50 (786-0 renal): 42.8 nM | TGI (786-0 renal): > 100 µM | TGI (A498 renal): > 100 µM | GI50 (A549 NSCLC): 60.5 nM | TGI (A549 NSCLC): > 100 µM | GI50 (ACHN renal): 292 nM | TGI (ACHN renal): > 100 µM | GI50 (BT-549 breast): 6.51 µM | TGI (BT-549 breast): > 100 µM | GI50 (CAKI-1 renal): 54.4 nM | TGI (CAKI-1 renal): > 100 µM | GI50 (CCRF-CEM leukemia): 56 nM | TGI (CCRF-CEM leukemia): > 100 µM | TGI (COLO 205 colon): > 100 µM | GI50 (DU-145 prostate): 204 nM | TGI (DU-145 prostate): > 100 µM | GI50 (EKVX NSCLC): 399 nM | TGI (EKVX NSCLC): > 100 µM | GI50 (HCC-2998 colon): 99.2 nM | TGI (HCC-2998 colon): > 100 µM | GI50 (HCT-116 colon): 41.6 nM | TGI (HCT-116 colon): > 100 µM | GI50 (HCT-15 colon): 62.3 nM | TGI (HCT-15 colon): > 100 µM | GI50 (HL-60(TB) leukemia): 74.2 nM | TGI (HL-60(TB) leukemia): > 100 µM | GI50 (HOP-62 NSCLC): 394 nM | TGI (HOP-62 NSCLC): > 100 µM | TGI (HOP-92 NSCLC): > 100 µM | GI50 (HS 578T breast): > 100 µM | TGI (HS 578T breast): > 100 µM | GI50 (HT29 colon): 56.4 nM | TGI (HT29 colon): > 100 µM | GI50 (IGROV1 ovarian): 809 nM | TGI (IGROV1 ovarian): > 100 µM | TGI (K-562 leukemia): > 100 µM | GI50 (KM12 colon): 87.5 nM | TGI (KM12 colon): > 100 µM | GI50 (LOX IMVI melanoma): 37.2 nM | TGI (LOX IMVI melanoma): > 100 µM | GI50 (M14 melanoma): 77.7 nM | TGI (M14 melanoma): > 100 µM | GI50 (MALME-3M melanoma): 43 µM | TGI (MALME-3M melanoma): > 100 µM | TGI (MCF7 breast): > 100 µM | GI50 (MDA-MB-231 breast): > 24 µM | TGI (MDA-MB-231 breast): > 100 µM | GI50 (MDA-MB-435): 47.8 nM | TGI (MDA-MB-435): > 100 µM | GI50 (MOLT-4 leukemia): 389 nM | TGI (MOLT-4 leukemia): > 100 µM | GI50 (NCI-H226 lung): 505 nM | TGI (NCI-H226 lung): > 100 µM | GI50 (NCI-H23 lung): 354 nM | TGI (NCI-H23 lung): > 100 µM | GI50 (NCI-H460 lung): 50 nM | TGI (NCI-H460 lung): > 100 µM | GI50 (NCI-H522 lung): 721 nM | TGI (NCI-H522 lung): > 100 µM | GI50 (NCI/ADR-RES ovarian): 72.2 nM | TGI (NCI/ADR-RES ovarian): > 100 µM | GI50 (OVCAR-3 ovarian): 1230 nM | TGI (OVCAR-3 ovarian): > 100 µM | GI50 (OVCAR-4 ovarian): > 100 µM | TGI (OVCAR-4 ovarian): > 100 µM | GI50 (OVCAR-5 ovarian): 668 nM | TGI (OVCAR-5 ovarian): > 100 µM | GI50 (OVCAR-8 ovarian): 53.2 nM | TGI (OVCAR-8 ovarian): > 100 µM | GI50 (PC-3 prostate): 2560 nM | TGI (PC-3 prostate): > 100 µM | GI50 (RPMI-8226 leukemia): 629 nM | TGI (RPMI-8226 leukemia): > 100 µM | TGI (RXF 393 renal): > 100 µM | GI50 (SF-268 CNS): 247 nM | TGI (SF-268 CNS): > 100 µM | GI50 (SF-295 CNS): 175 nM | TGI (SF-295 CNS): 36.5 µM | GI50 (SF-539 CNS): 234 nM | TGI (SF-539 CNS): > 25.3 µM | TGI (SK-MEL-2 melanoma): > 100 µM | GI50 (SK-MEL-28 melanoma): 21 µM | TGI (SK-MEL-28 melanoma): > 100 µM | GI50 (SK-MEL-5 melanoma): 443 nM | TGI (SK-MEL-5 melanoma): > 100 µM | GI50 (SK-OV-3 ovarian): 6.04 µM | TGI (SK-OV-3 ovarian): > 100 µM | GI50 (SN12C renal): 59.5 nM | TGI (SN12C renal): > 100 µM | TGI (SNB-19 CNS): > 100 µM | GI50 (SNB-75 CNS): > 100 µM | TGI (SNB-75 CNS): > 100 µM | GI50 (SR leukemia): 50 nM | TGI (SR leukemia): > 100 µM | GI50 (SW-620 colon): 45.6 nM | TGI (SW-620 colon): > 100 µM | GI50 (T-47D breast): > 100 µM | TGI (T-47D breast): > 100 µM | GI50 (TK-10 renal): > 100 µM | TGI (TK-10 renal): > 100 µM | GI50 (U251 CNS): 435 nM | TGI (U251 CNS): > 100 µM | GI50 (UACC-257 melanoma): 955 nM | TGI (UACC-257 melanoma): > 100 µM | GI50 (UACC-62 melanoma): 145 nM | TGI (UACC-62 melanoma): > 100 µM | GI50 (UO-31 renal): 270 nM | TGI (UO-31 renal): > 100 µM
